In US20150118293A1, “NOVEL DELIVERY SYSTEM FOR ANTICANCER DRUG BASED ON SHORT-CHAIN- LENGTH POLYHYDROXYALKANOATE NANOPARTICLES” (priority 2013, published 2015):

Tests used:
cancer cells line A549 = assay: in vitro cytotoxicity, MTT viability assay; format: cell-based; conditions: free EPT, concentration not given
Description: The cellular toxicity of blank and EPT loaded scl-PHA nanoparticles as prepared in Example 2 were determined by using cancer cells line A549. The cells were cultured in Dulbecco's Modified Eagle's Medium (DMEM) containing 1% (v/v) Penicillin-Streptomycin (P/S, 10,000 U) antibiotic and 10% (v/v) Fetal Bovine Serum (FBS) and incubated for 24 h at 37° C. and 5% CO2. When cells grew to reach 95% confluence, they were detached from the cell culture flasks using trypsin-EDTA. The cell suspension was centrifuged at 900 rpm for 5 min and then resuspended in culture medium to get the final concentration of 1×10^5 cells/mL. About 200 μL of the cell suspensions were transferred to each well of a clear, flat bottom 96-well plate (Costar) and incubated for 24 h. On treatment day, medium was removed and fresh medium containing 4-fold serial dilutions i.e., 250.0 μg/mL (4 times), 62.5 μg/mL (8 times) and 1.6 μg/mL (12 times) of blank and EPT loaded scl-PHA nanoparticles was added. The toxicity of the nanoparticles was checked after 24, 48 and 72 h of treatment using 3-(4,5-dimethylthiazole-2-yl)-2,5-diphenyl tetrazolium (MTT) viability assay. About 5 mg of MTT was dissolved in 1 mL physiological buffer saline (PBS) solution, followed by 10 times dilution in culture medium. About 100 μL of MTT solution were added to each well after the removal of treatments and incubated for 4 h before the addition of 100 μl, of the solubilization solution (anhydrous isopropanol containing 0.1 N HCl and 10% Triton X-100). The plates were then incubated overnight and absorbance was taken at 570 nm on a microplate reader (BMG FLUOstar OPTIMA) and subtracted from the background signals at 690 nm. The cell % inhibition was calculated relative to wells containing only cell cultures without nanoparticles by using the following formula: […]

[1] = neutral pH; cited from earlier work

Cc1c2ccncc2c(C)c2c1[nH]c1ccccc12 [EPT, 5,11-dimethyl-6H-pyrido[4,3-b]carbazole]
Relative % inhibition for A549 cells (cancer cells line A549; 24 h): 10.02 ± 0.86% | Relative % inhibition for A549 cells (cancer cells line A549; 48 h): 25.40 ± 1.35% | Relative % inhibition for A549 cells (cancer cells line A549; 72 h): 32.38% | water solubility [1]: approximately 0.62 mM
